For one assay, the system named is pro MMP-9 protein. The assay is described as follows: Inhibitory activity against proMMP-9 protein production (TNF α-stimulated mouse peritoneal exudate cells, ELISA). Type of assay: cell-based, C57BL/6J mice. As to conditions: relative activity when the value of Comparative Agent 1 (IC50 = 10.04 ± 4.11 μM) is 10, on the increase of pro MMP-9 by TNF α 25 ng/ml, 24 hours, read-out: IC50 (μM)*. On the procedure: (§1) To 7- to 9-week male C57BL/6J mice (purchased from CLEA Japan, Inc. or Japan SLC, Inc.), Zymosan A (SIGMA) derived from budding yeasts which is adjusted to be 1 mg/ml in a phosphate buffer solution (PBS, 10010-49, Invitrogen) was administered intraperitoneally at 1 ml per mouse to induce peritonitis. Three days later, filter-sterilized cell recovery buffer (2 mM EDTA, 0.5% bovine serum albumin, PBS, pH 7.4) was administered intraperitoneally at 5 ml per mouse to recover peritoneal exudata cells. The cells went through a cell strainer (70 μm nylon, FALCON) and were then washed twice with a Hanks solution (Invitrogen). The cells were suspended in 10% fetal calf serum-containing Dulbecco's modified Eagle's culture medium (Invitrogen). The suspension was seeded on a plate with 48 wells, after 6 hours, the culture medium was completely exchanged. After culturing for another 18 hours, test compounds were added at 0.02 to 20 μM of the final concentration. After 1 hour from the addition of the compounds, a tumor necrosis factor (TNF) α (R & D Systems) was added at 25 ng/ml of the final concentration, and 24 hours later, the culture supernatant was collected. The amount of pro MMP-9 protein in the supernatant was quantified by an enzyme-linked immunosorbent assay (ELISA) (R & D Systems), IC50 values of the test compounds on the increased amount by TNF α stimuli, were calculated by ORIGIN analysis software (trade name: OriginLab). In addition, minimal inhibitory concentration (MIC) of each test compounds (measured bacterium: Staphylococcus aureus ATCC29213) was measured. As a comparative agent […] A (clarithromycin) was used.

The test system of assay [1] is Staphylococcus aureus ATCC29213. The assay is described as follows: Minimal inhibitory concentration (MIC). Type of assay: cell-based. On the procedure: as §1

IC50 and MIC data for 18 compounds are collected here from patent US8124744B2, “Macrolide derivatives” (Taisho Pharmaceutical Co., Ltd., priority 2006, dated 2012).

Each structure is given as a SMILES string. Bounds are passed on as bounds.

Turning to `CC[C@H]1OC(=O)[C@H](C)[C@@H](O[C@H]2C[C@@](C)(OC)[C@@H](OC(C)=O)[C@H](C)O2)[C@H](C)[C@@H](O[C@@H]2O[C@H](C)C[C@H](N(C)C)[C@H]2OCCCN(C)C)[C@@](C)(OC)C[C@@H](C)C(=O)[C@H](C)[C@@H](O)[C@]1(C)O` [Example 116, 4″-O-acetyl-2′-O-(3-dimethylaminopropyl)-6-O-methylerythromycin A], the IC50 in the assay with pro MMP-9 protein worked out at 2.79 µM. In assay [1], this compound had an MIC greater than 128 µg/mL.

For the compound `CC[C@H]1OC(=O)[C@H](C)[C@@H](O[C@H]2C[C@@](C)(OC)[C@@H](O)[C@H](C)O2)[C@H](C)[C@@H](O[C@@H]2O[C@H](C)C[C@H](N(C)C)[C@H]2OCCCNS(C)(=O)=O)[C@@](C)(OC)C[C@@H](C)C(=O)[C@H](C)[C@@H](O)[C@]1(C)O` [Example 117, 2′-O-(3-methanesulfonylamidepropyl)-6-O-methylerythromycin A], the IC50 with pro MMP-9 protein is 3.55 µM. The MIC in assay [1] is greater than 128 µg/mL.

`CC[C@H]1OC(=O)[C@H](C)[C@@H](O[C@H]2C[C@@](C)(OC)[C@@H](OC(C)=O)[C@H](C)O2)[C@H](C)[C@@H](O[C@@H]2O[C@H](C)C[C@H](N(C)C)[C@H]2OCCCN2CCOCC2)[C@@](C)(OC)C[C@@H](C)C(=O)[C@H](C)[C@@H](O)[C@]1(C)O` [Example 119, 4″-O-acetyl-2′-O-(3-(4-morpholino)propyl)-6-O-methylerythromycin A]: the IC50 in the assay with pro MMP-9 protein came out at 4.42 µM. The compound also yielded an MIC in assay [1] greater than 128 µg/mL.

Take `CC[C@H]1OC(=O)[C@H](C)[C@@H](O[C@H]2C[C@@](C)(OC)[C@@H](OC(C)=O)[C@H](C)O2)[C@H](C)[C@@H](O[C@@H]2O[C@H](C)C[C@H](N(C)C)[C@H]2OCCCN2CCC(O)CC2)[C@@](C)(OC)C[C@@H](C)C(=O)[C@H](C)[C@@H](O)[C@]1(C)O` [Example 122, 4″-O-acetyl-2′-O-(3-(4-hydropiperidin-1-yl)propyl)-6-O-methylerythromycin A]: the IC50 in the assay on pro MMP-9 protein worked out at 3.06 µM. This compound yielded an MIC in assay [1] greater than 128 µg/mL.

In the case of `CC[C@H]1OC(=O)[C@H](C)[C@@H](O[C@H]2C[C@@](C)(OC)[C@@H](O)[C@H](C)O2)[C@H](C)[C@@H](O[C@@H]2O[C@H](C)C[C@H](N(C)CCCOCc3ccccc3)[C@H]2OC)[C@@](C)(OC)C[C@@H](C)C(=O)[C@H](C)[C@@H](O)[C@]1(C)O` [Example 129, 3′-N-demethyl-3′-N-(3-benzyloxypropyl)-6,2′-di-O-methylerythromycin A], the IC50 in the assay on pro MMP-9 protein was less than 1.04 µM. The compound also gave an MIC in assay [1] greater than 128 µg/mL.

`CC[C@H]1OC(=O)[C@H](C)[C@@H](O[C@H]2C[C@@](C)(OC)[C@@H](O)[C@H](C)O2)[C@H](C)[C@@H](O[C@@H]2O[C@H](C)C[C@H](N(C)CCCN(C)C)[C@H]2OC)[C@@](C)(OC)C[C@@H](C)C(=O)[C@H](C)[C@@H](O)[C@]1(C)O` [Example 130, 3′-N-demethyl-3′-N-(3-dimethylaminopropyl)-6,2′-di-O-methylerythromycin A]: the IC50 with pro MMP-9 protein was found to be 1.33 µM. The MIC in assay [1] is greater than 128 µg/mL.

`CC[C@H]1OC(=O)[C@H](C)[C@@H](O[C@H]2C[C@@](C)(OC)[C@@H](O)[C@H](C)O2)[C@H](C)[C@@H](O[C@@H]2O[C@H](C)C[C@H](N(C)CCCN3CCOCC3)[C@H]2OC)[C@@](C)(OC)C[C@@H](C)C(=O)[C@H](C)[C@@H](O)[C@]1(C)O` [Example 131, 3′-N-demethyl-3′-N-(3-(4-morpholino)propyl)-6,2′-di-O-methylerythromycin A]: the IC50 in the assay with pro MMP-9 protein was 3.33 µM. In addition, in assay [1], the MIC is greater than 128 µg/mL.

Consider `CC[C@H]1OC(=O)[C@H](C)[C@@H](O[C@H]2C[C@@](C)(OC)[C@@H](O)[C@H](C)O2)[C@H](C)[C@@H](O[C@@H]2O[C@H](C)C[C@H](N(C)CCCO)[C@H]2OC)[C@@](C)(OC)C[C@@H](C)C(=O)[C@H](C)[C@@H](O)[C@]1(C)O` [Example 132, 3′-N-demethyl-3′-N-(3-hydroxypropyl)-6,2′-di-O-methylerythromycin A], for which, in the assay with pro MMP-9 protein, the IC50 amounted to 2.52 µM. This compound displayed an MIC in assay [1] greater than 128 µg/mL.

For `CC[C@H]1OC(=O)[C@H](C)[C@@H](O[C@H]2C[C@@](C)(OC)[C@@H](OC(C)=O)[C@H](C)O2)[C@H](C)[C@@H](O[C@@H]2O[C@H](C)C[C@H](N(C)CCCOC(C)=O)[C@H]2OC)[C@@](C)(OC)C[C@@H](C)C(=O)[C@H](C)[C@@H](O)[C@]1(C)O` [Example 136, 4″-O-acetyl-3′-N-demethyl-3′-N-(3-acetoxypropyl)-6,2′-di-O-methylerythromycin A], in the assay with pro MMP-9 protein, the IC50 came to 2.12 µM. The compound further displayed an MIC in assay [1] greater than 128 µg/mL.

As for `CC[C@H]1OC(=O)[C@H](C)[C@@H](O[C@H]2C[C@@](C)(OC)[C@@H](O)[C@H](C)O2)[C@H](C)[C@@H](O[C@@H]2O[C@H](C)C[C@H](N)[C@H]2OC)[C@@](C)(OC)C[C@@H](C)C(=O)[C@H](C)[C@@H](O)[C@]1(C)O` [Example 138, 3′-N-dedimethyl-6,2′-di-O-methylerythromycin A], the IC50 with pro MMP-9 protein amounted to 3.95 µM. In assay [1], this compound gave an MIC greater than 128 µg/mL.

On to `CC[C@H]1OC(=O)[C@H](C)[C@@H](O[C@H]2C[C@@](C)(OC)[C@@H](O)[C@H](C)O2)[C@H](C)[C@@H](O[C@@H]2O[C@H](C)C[C@H](N3CCOCC3)[C@H]2OC)[C@@](C)(OC)C[C@@H](C)C(=O)[C@H](C)[C@@H](O)[C@]1(C)O` [Example 139, 3′-N-dedimethylamino-3-(4-morpholino)-6,2′-di-O-methylerythromycin A], for which the IC50 in the assay on pro MMP-9 protein worked out at 5.51 µM. In assay [1], this compound displayed an MIC greater than 128 µg/mL.

On to `CC[C@H]1OC(=O)[C@H](C)[C@@H](O[C@H]2C[C@@](C)(OC)[C@@H](O)[C@H](C)O2)[C@H](C)[C@@H](O[C@@H]2O[C@H](C)C[C@H](N(C)C)[C@H]2OC)[C@@](C)(OC)C[C@@H](C)[C@H](O)[C@H](C)[C@@H](O)[C@]1(C)O` [Example 141, 9-deoxo-9-(S)-hydroxy-6,2′-di-O-methylerythromycin A], for which the IC50 with pro MMP-9 protein was found to be 2.18 µM. Also, the MIC in assay [1] was greater than 128 µg/mL.

Take `CC[C@H]1OC(=O)[C@H](C)[C@@H](O[C@H]2C[C@@](C)(OC)[C@@H](OC(C)=O)[C@H](C)O2)[C@H](C)[C@@H](O[C@@H]2O[C@H](C)C[C@H](N(C)C)[C@H]2OC)[C@@](C)(OC)C[C@@H](C)C(=O)[C@H](C)[C@H]2NC(=O)O[C@@]21C` [Example 148, 4″-O-acetyl-11-amino-11-deoxy-6,2′-di-O-methylerythromycin A 11,12-cyclic carbamate]: the IC50 with pro MMP-9 protein is 7.68 µM. This compound returned an MIC in assay [1] greater than 128 µg/mL.

Take `CC[C@H]1OC(=O)[C@H](C)C(=O)[C@H](C)[C@@H](O[C@@H]2O[C@H](C)C[C@H](N(C)C)[C@H]2OC)[C@@](C)(OC)C[C@@H](C)C(=O)[C@H](C)[C@@H](O)[C@]1(C)O` [Example 155, 3-deoxy-3-oxo-5-O-(2′-O-methyldesosaminyl)-6-O-methylerythronolide A]: the IC50 with pro MMP-9 protein was found to be 9.7 µM. Further, the MIC in assay [1] was greater than 128 µg/mL.

Regarding `CC[C@H]1OC(=O)[C@H](C)[C@@H](O[C@H]2C[C@@](C)(OC)[C@@H](OC(C)=O)[C@H](C)O2)[C@H](C)[C@@H](O[C@@H]2O[C@H](C)C[C@@H](N(C)CCCc3ccncc3)[C@@H]2N(C)C)[C@@](C)(OC)C[C@@H](C)C(=O)[C@H](C)[C@@H](O)[C@]1(C)O` [Example 162, 4″-O-acetyl-3′-N-demethyl-2′-deoxy-2′-dimethylamino-3′-N-(3-(4-pyridyl)propyl)-6-O-methylerythromycin A], the IC50 with pro MMP-9 protein is less than 1.5 µM. The MIC in assay [1] was greater than 128 µg/mL.

As for `CC[C@H]1OC(=O)[C@H](C)[C@@H](O[C@H]2C[C@@](C)(OC)[C@@H](OC(C)=O)[C@H](C)O2)[C@H](C)[C@@H](O[C@@H]2O[C@H](C)C[C@@H](N3CCC(O)CC3)[C@@H]2N(C)C)[C@@](C)(OC)C[C@@H](C)C(=O)[C@H](C)[C@@H](O)[C@]1(C)O` [Example 164, 4″-O-acetyl-3′-dedimethylamino-2′-deoxy-2′-dimethylamino-3′-(4-hydroxypiperidin-1-yl)-6-O-methylerythromycin A], in the assay on pro MMP-9 protein, the IC50 is 2.77 µM. The compound also displayed an MIC in assay [1] greater than 128 µg/mL.

Turning to `CC[C@H]1OC(=O)[C@H](C)[C@@H](O[C@H]2C[C@@](C)(OC)[C@@H](O)[C@H](C)O2)[C@H](C)[C@@H](O[C@@H]2O[C@H](C)C[C@@H](N3CCN(CCN(C)C)CC3)[C@@H]2N(C)C)[C@@](C)(OC)C[C@@H](C)C(=O)[C@H](C)[C@@H](O)[C@]1(C)O` [Example 169, 3′-dedimethylamino-2′-deoxy-2′-dimethylamino-3′-(4-(2-dimethylaminoethyl)piperazin-1-yl)-6-O-methylerythromycin A], the IC50 in the assay with pro MMP-9 protein is 2.89 µM. For the same compound, the MIC in assay [1] is greater than 128 µg/mL.

In the case of `CC[C@H]1OC(=O)[C@H](C)[C@@H](O[C@H]2C[C@@](C)(OC)[C@@H](OC(C)=O)[C@H](C)O2)[C@H](C)[C@@H](O[C@@H]2O[C@H](C)C[C@@H](N(C)Cc3ccccc3)[C@@H]2N(C)C)[C@@](C)(OC)C[C@@H](C)C(=O)[C@H](C)[C@@H](O)[C@]1(C)O` [Example 170, 4″-O-acetyl-3′-N-demethyl-2′-deoxy-2′-dimethylamino-3′-N-benzyl-6-O-methylerythromycin A], the IC50 in the assay with pro MMP-9 protein was 1.01 µM. For the same compound, in assay [1], the MIC was greater than 128 µg/mL.
